Assay results published in ChEMBL document CHEMBL1201862, “PubChem BioAssay data set” (2004).
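Growth conditions: 96-well plates. Treatment: test compound, 48 hours, 5 concentrations. Analysis: linear interpolation between bracketing concentrations; unreached endpoints set to highest concentration. GI50: concentration for 50% inhibition of growth.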 The source made the active and inactive calls. No stated cut-off is given here; in the data, active = GI50 up to about 1.1 µM and inactive = higher.

How the values were obtained:
Test in all cases: NCI tumour cell line growth inhibition, 48 h
786-0 = system: 786-0
ACHN = system: ACHN
COLO 205 = system: COLO 205
HCT-15 = system: HCT-15
HOP-92 = system: HOP-92
HT-29 = system: HT-29
Hs-578T = system: Hs-578T
IGROV-1 = system: IGROV-1
MDA-MB-435 = system: MDA-MB-435
MOLT-4 = system: MOLT-4
NCI-H226 = system: NCI-H226
NCI-H522 = system: NCI-H522
OVCAR-5 = system: OVCAR-5
RXF 393 = system: RXF 393
SK-MEL-28 = system: SK-MEL-28
SK-MEL-5 = system: SK-MEL-5
SN12C = system: SN12C
U-251 = system: U-251
UACC-62 = system: UACC-62
MDA-MB-231 = system: MDA-MB-231

Row | SMILES | GI50 (786-0) | GI50 (ACHN) | GI50 (COLO 205) | GI50 (HCT-15) [µM] | GI50 (HOP-92) | GI50 (HT-29) | GI50 (Hs-578T) | GI50 (IGROV-1) | GI50 (MDA-MB-435) | GI50 (MOLT-4) | GI50 (NCI-H226) | GI50 (NCI-H522) | GI50 (OVCAR-5) | GI50 (RXF 393) | GI50 (SK-MEL-28) | GI50 (SK-MEL-5) | GI50 (SN12C) | GI50 (U-251) | GI50 (UACC-62) | GI50 (MDA-MB-231)
1 | CCOC(=O)/C=C/C1=C(Br)[C@@]2(C)CC[C@@H]3c4ccc(O)cc4CC[C@H]3[C@@H]2C1 | 12.8 µM (inactive) | 15.7 µM (inactive) | 17.8 µM (inactive) | 12.1 | 11.6 µM (inactive) | 14.6 µM (inactive) | 15.6 µM (inactive) | 12.2 µM (inactive) | 15.2 µM (inactive) | 12.5 µM (inactive) | 15.2 µM (inactive) | 4.02 µM (inactive) | 15.2 µM (inactive) | 15.7 µM (inactive) | 16.4 µM (inactive) | 13.6 µM (inactive) | 13.6 µM (inactive) | 16.6 µM (inactive) | 6.85 µM (inactive) | –
2 | CCOC(=O)C(NC(=O)CC)(Nc1cc(C)on1)C(F)(F)F (stereo unspecified) | > 100 µM (inactive) | > 100 µM (inactive) | > 100 µM (inactive) | > 100 | – | > 100 µM (inactive) | > 100 µM (inactive) | > 100 µM (inactive) | > 100 µM (inactive) | > 100 µM (inactive) | – | – | > 100 µM (inactive) | > 100 µM (inactive) | > 100 µM (inactive) | > 100 µM (inactive) | > 100 µM (inactive) | > 100 µM (inactive) | – | –
3 | O=C(c1ccccc1)N1CCC(Nc2cccnc2)O1 (stereo unspecified) | > 100 µM (inactive) | > 100 µM (inactive) | – | > 100 | > 100 µM (inactive) | > 100 µM (inactive) | 7.64 µM (inactive) | > 100 µM (inactive) | > 100 µM (inactive) | > 100 µM (inactive) | > 100 µM (inactive) | – | > 100 µM (inactive) | > 100 µM (inactive) | > 100 µM (inactive) | > 100 µM (inactive) | > 100 µM (inactive) | > 100 µM (inactive) | > 100 µM (inactive) | > 100 µM (inactive)
4 | CC1C2(C)OC(=N)C(C#N)(C(C)O2)C1(C#N)C#N (stereo unspecified) | 22 µM (inactive) | 33.3 µM (inactive) | 12.1 µM (inactive) | 15.5 | 16.9 µM (inactive) | 28.2 µM (inactive) | 29.4 µM (inactive) | 39.5 µM (inactive) | – | 36 µM (inactive) | > 100 µM (inactive) | – | 30.5 µM (inactive) | 18.2 µM (inactive) | 27.4 µM (inactive) | 13.1 µM (inactive) | 16.3 µM (inactive) | 21.4 µM (inactive) | 19.8 µM (inactive) | 19.9 µM (inactive)
5 | Cc1ccc(S(=O)(=O)N(CC(O)COc2ccccc2)c2c(F)c(F)c(F)c(F)c2F)cc1 (stereo unspecified) | 19.5 µM (inactive) | 15.7 µM (inactive) | 16.3 µM (inactive) | 16.5 | 8.49 µM (inactive) | 16.2 µM (inactive) | 18.5 µM (inactive) | – | 16.4 µM (inactive) | 21.6 µM (inactive) | 17.9 µM (inactive) | – | 18.3 µM (inactive) | – | 16.9 µM (inactive) | 12.4 µM (inactive) | 16.6 µM (inactive) | 13.2 µM (inactive) | 13.7 µM (inactive) | 12.8 µM (inactive)
6 | Cc1ccc(Nc2nc(N)nc3c2ncn3C2OC(CO)C(O)C2O)cc1 (stereo unspecified) | > 100 µM (inactive) | > 100 µM (inactive) | > 100 µM (inactive) | > 100 | > 100 µM (inactive) | > 100 µM (inactive) | – | > 100 µM (inactive) | > 100 µM (inactive) | > 100 µM (inactive) | > 100 µM (inactive) | > 100 µM (inactive) | > 100 µM (inactive) | > 100 µM (inactive) | > 100 µM (inactive) | > 100 µM (inactive) | > 100 µM (inactive) | > 100 µM (inactive) | > 100 µM (inactive) | 98.9 µM (inactive)
7 | COc1ccc(/N=C(/[N-]n2c(=O)c(C)nn(C)c2=S)N(c2ccc(OC)cc2)c2n[n+]3c(=O)c(C)nn(C)c3s2)cc1 | > 100 µM (inactive) | > 100 µM (inactive) | > 100 µM (inactive) | > 100 | > 100 µM (inactive) | > 100 µM (inactive) | – | > 100 µM (inactive) | – | > 100 µM (inactive) | > 100 µM (inactive) | > 100 µM (inactive) | > 100 µM (inactive) | > 100 µM (inactive) | > 100 µM (inactive) | > 100 µM (inactive) | > 100 µM (inactive) | > 100 µM (inactive) | > 100 µM (inactive) | –
8 | N#Cc1cc([N+](=O)[O-])ccc1NC(=O)C(=O)Nc1n[nH]c(N)n1 | > 100 µM (inactive) | > 100 µM (inactive) | > 100 µM (inactive) | > 100 | > 100 µM (inactive) | > 100 µM (inactive) | – | > 100 µM (inactive) | – | > 100 µM (inactive) | 86.3 µM (inactive) | > 100 µM (inactive) | > 100 µM (inactive) | > 100 µM (inactive) | > 100 µM (inactive) | > 100 µM (inactive) | > 100 µM (inactive) | > 100 µM (inactive) | > 100 µM (inactive) | –
9 | O=c1c2ccc(Cl)cc2oc2c(CNc3ccc(S(=O)(=O)Nc4nccs4)cc3)cccc12 | > 100 µM (inactive) | > 100 µM (inactive) | > 100 µM (inactive) | > 100 | 31.2 µM (inactive) | > 100 µM (inactive) | – | > 100 µM (inactive) | > 100 µM (inactive) | > 100 µM (inactive) | > 100 µM (inactive) | > 100 µM (inactive) | > 100 µM (inactive) | > 100 µM (inactive) | > 100 µM (inactive) | > 100 µM (inactive) | > 100 µM (inactive) | > 100 µM (inactive) | > 100 µM (inactive) | 98.6 µM (inactive)
10 | O=C1Nc2ccccc2C1Cc1ccccc1 (stereo unspecified) | > 100 µM (inactive) | > 100 µM (inactive) | > 100 µM (inactive) | > 100 | > 100 µM (inactive) | > 100 µM (inactive) | > 100 µM (inactive) | > 100 µM (inactive) | > 100 µM (inactive) | > 100 µM (inactive) | > 100 µM (inactive) | > 100 µM (inactive) | > 100 µM (inactive) | – | > 100 µM (inactive) | 43.6 µM (inactive) | – | > 100 µM (inactive) | > 100 µM (inactive) | –
11 | COc1ccc(/C=C2/CCS(=O)(=O)c3ccc(C)cc3C2=O)cc1OC | 11.4 µM (inactive) | 12.9 µM (inactive) | 14.2 µM (inactive) | 7.18 | 2.36 µM (inactive) | 13.9 µM (inactive) | 11.5 µM (inactive) | 6.4 µM (inactive) | 12.5 µM (inactive) | 12.1 µM (inactive) | 14.3 µM (inactive) | – | 27.5 µM (inactive) | 12.9 µM (inactive) | 17.2 µM (inactive) | – | 13.2 µM (inactive) | 12.8 µM (inactive) | 5.97 µM (inactive) | 12.8 µM (inactive)
12 | CC(=O)O[C@H]1CCC2[C@@H]3CC[C@]4(C)CC(=O)C=C[C@]4(C)C3CC[C@@]21C (stereo partly specified) | 34.4 µM (inactive) | 49 µM (inactive) | 17.2 µM (inactive) | 18.7 | 48.2 µM (inactive) | 18.1 µM (inactive) | – | 23.8 µM (inactive) | 40.6 µM (inactive) | 23.2 µM (inactive) | 25.2 µM (inactive) | 24.6 µM (inactive) | > 80.5 µM (inactive) | 24.2 µM (inactive) | 18.5 µM (inactive) | 14.8 µM (inactive) | 24.2 µM (inactive) | 17.7 µM (inactive) | 15.7 µM (inactive) | 31.8 µM (inactive)
13 | CC(=O)OCCOCNC(=S)N/N=C/c1ccc(Br)s1 | > 76.6 µM (inactive) | > 100 µM (inactive) | > 100 µM (inactive) | > 100 | > 100 µM (inactive) | > 100 µM (inactive) | – | > 100 µM (inactive) | – | > 26.1 µM (inactive) | > 100 µM (inactive) | 8.17 µM (inactive) | > 100 µM (inactive) | > 100 µM (inactive) | > 100 µM (inactive) | > 100 µM (inactive) | > 100 µM (inactive) | > 95.3 µM (inactive) | > 100 µM (inactive) | –
14 | CCCCCCCCCCCCCCCCOP(=O)(O)Oc1ccc(/C=C\c2ccc(OP(=O)(O)OCCCCCCCCCCCCCCCC)cc2)cc1 | 26.2 µM (inactive) | 40.6 µM (inactive) | 17.5 µM (inactive) | > 100 | 5.02 µM (inactive) | 62.7 µM (inactive) | – | 30.8 µM (inactive) | – | 59 µM (inactive) | 42.7 µM (inactive) | 29.6 µM (inactive) | > 100 µM (inactive) | 2.47 µM (inactive) | > 100 µM (inactive) | > 100 µM (inactive) | > 100 µM (inactive) | 34 µM (inactive) | > 100 µM (inactive) | –
15 | CCN(CC)CCOc1ccc(/C=C(\C#N)c2ccc(OCCN(CC)CC)cc2)cc1 | 11.3 µM (inactive) | 27.3 µM (inactive) | 10.8 µM (inactive) | 14.5 | 16.9 µM (inactive) | 1.43 µM (inactive) | – | 22.7 µM (inactive) | – | 9.12 µM (inactive) | 39.4 µM (inactive) | 11.3 µM (inactive) | 11.6 µM (inactive) | 12.4 µM (inactive) | 16.5 µM (inactive) | 4.48 µM (inactive) | 45.1 µM (inactive) | 13.5 µM (inactive) | 16.6 µM (inactive) | –
16 | CC(=O)NC(CCCNCc1ccccc1)C(=O)NCc1ccccc1 (stereo unspecified) | > 100 µM (inactive) | > 100 µM (inactive) | > 100 µM (inactive) | > 100 | > 100 µM (inactive) | > 100 µM (inactive) | – | > 100 µM (inactive) | – | > 100 µM (inactive) | > 100 µM (inactive) | > 100 µM (inactive) | > 100 µM (inactive) | > 100 µM (inactive) | > 100 µM (inactive) | > 100 µM (inactive) | > 100 µM (inactive) | > 100 µM (inactive) | > 100 µM (inactive) | –
